According to PMC10535624, “Curcuminoid Chalcones: Synthesis, Stability, and New Neuroprotective and Sonosensitising Activities” (Pharmaceuticals, 2023):

Experiments:
[1] = target: T1, COX-2 (Homo sapiens, UniProt P35354); assay: Effect on COX-2 activity; assay type: biochemical; conditions: samples 3 mM/dm^3 in DMSO, 0.02 mL; mean ± SEM, n = 3
T1 sequence (P35354 18-604): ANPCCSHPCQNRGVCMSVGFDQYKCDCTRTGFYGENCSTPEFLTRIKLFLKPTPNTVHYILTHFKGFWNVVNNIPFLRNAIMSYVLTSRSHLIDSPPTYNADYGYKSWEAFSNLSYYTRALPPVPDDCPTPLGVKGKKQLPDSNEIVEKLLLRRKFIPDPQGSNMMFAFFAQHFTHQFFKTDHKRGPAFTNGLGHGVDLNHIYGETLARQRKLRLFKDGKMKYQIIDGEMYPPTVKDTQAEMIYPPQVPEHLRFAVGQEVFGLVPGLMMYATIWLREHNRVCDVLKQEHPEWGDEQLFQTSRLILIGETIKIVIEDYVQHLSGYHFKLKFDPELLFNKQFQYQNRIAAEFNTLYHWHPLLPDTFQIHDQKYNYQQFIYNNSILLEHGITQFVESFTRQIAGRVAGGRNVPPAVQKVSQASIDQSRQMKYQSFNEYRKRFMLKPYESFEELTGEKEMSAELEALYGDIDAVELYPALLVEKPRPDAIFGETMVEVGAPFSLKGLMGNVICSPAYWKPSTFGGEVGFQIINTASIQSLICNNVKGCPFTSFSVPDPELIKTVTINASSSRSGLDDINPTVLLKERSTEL

[2] = test system: glutathione peroxidase (GPx); assay: Effect on GPx activity; assay type: biochemical; conditions: samples 3 mM/dm^3 in DMSO; mean ± SEM, n = 3
Method: (§1) We decided to extend the study by measuring the compounds’ ability to inhibit glutathione reductase (GR) and GPx activities, the human cells’ main endogenous enzymatic defence systems. Therefore, we checked the influence of some curcuminoid chalcones on GR and GPx using in vitro spectroscopic methods (Table 2). Moreover, the effects of curcuminoid chalcones on CAT activity were estimated (Table 2).
(§2) The samples were dissolved in DMSO (Sigma D4540) to obtain a concentration of 3 mM/dm^3.
(§3) The analyses were performed strictly as described by Studzińska-Sroka et al..

[3] = target: T2, glutathione reductase (GR) (Homo sapiens, UniProt P00390); assay: Effect on GR activity; assay type: biochemical; conditions: samples 3 mM/dm^3 in DMSO; mean ± SEM, n = 3
T2 sequence (P00390 44-522): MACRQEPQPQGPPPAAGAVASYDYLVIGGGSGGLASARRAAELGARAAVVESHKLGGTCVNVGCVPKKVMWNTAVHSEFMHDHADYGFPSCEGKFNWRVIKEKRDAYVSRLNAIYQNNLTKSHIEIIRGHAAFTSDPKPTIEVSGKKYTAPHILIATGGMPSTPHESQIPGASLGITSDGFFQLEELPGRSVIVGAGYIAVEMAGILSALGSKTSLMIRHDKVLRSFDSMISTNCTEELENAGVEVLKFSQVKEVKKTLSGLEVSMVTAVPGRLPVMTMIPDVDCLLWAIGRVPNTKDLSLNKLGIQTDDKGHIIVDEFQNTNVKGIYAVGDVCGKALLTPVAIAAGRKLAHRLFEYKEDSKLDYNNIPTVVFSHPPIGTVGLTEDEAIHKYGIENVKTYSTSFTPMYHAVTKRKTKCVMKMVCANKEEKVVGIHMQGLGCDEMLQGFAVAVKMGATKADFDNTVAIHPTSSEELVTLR
Method: as §1, §2, §3

[4] = target: T3, catalase (CAT) (Aspergillus niger, UniProt P55303); assay: Effect on CAT activity; assay type: biochemical; conditions: samples 3 mM/dm^3 in DMSO, 0.01 mL; mean ± SEM, n = 3
T3 construct: purchased Sigma C3515
Method: as §2
The method used by Watanabe et al. was used with the following modifications. The reaction mixture was composed of 0.02 mL of EDTA solution (56.5 mM), 0.01 mL of ^the sample, 0.02 mL of 3% H2O2 solution (Sigma H1009), and 0.02 mL of catalase solution (4000-fold diluted, Sigma C3515) (all reagents except the tested sample were diluted in TRIS buffer, pH 7.0, 1 mol/dm^3). The volume was completed to 0.31 mL by the same buffer solution. In a blank sample, DMSO (Sigma D4540) replaced the tested sample. The background of the sample was measured in a mixture composed of 0.01 mL of the sample completed to 0.31 mL by the buffer. The absorbance was read at 240 nm directly after the mixing and after 5 min of incubation (room temperature). The decreased absorbance (depletion of H2O2) in the tested and blank samples was compared. The calibration curve was produced using eleven H2O2 solutions (0.5693–5.693 mM/dm^3). The results are expressed in % inhibition and as H2O2 depletion (mmol of depleted H2O2/dm^3 min).

[5] = target: AChE (Homo sapiens, UniProt P22303); assay: Effect on AChE activity (modified Ellman's method); assay type: biochemical; conditions: samples 3 mM/dm^3 in DMSO, 0.035 mL; mean ± SEM, n = 3
Excerpt: Neurodegenerative diseases are associated with the progressive damage of neurons. During the development of these diseases, there is a loss of nerve cells and a deficiency of […], serotonin, and norepinephrine levels. The ability to inhibit acetyl- (AChE) and butyrylcholinesterase (BChE) activities is seen, among others, in organophosphorus compounds, carbamate insecticides, phenoxyacetic pesticides, and hydrogen peroxide, as well as aliphatic ketones with the carbons C4–C9, e.g., 2,5-hexandione. AChE and BChE show differences in their susceptibility to inhibitors, behaviour in situations involving excess substrate, or substrate binding specificity. Unlike, other esterases, both enzymes hydrolyse choline esters at very high speeds. Thus, in our work, the modified Elman’s method was used to investigate the anti-AChE and anti-BChE effects of curcuminoid chalcone.
as §2
The analysis was performed strictly as described by Studzińska-Sroka et al., except that the volume of the tested samples added to the reaction mixture was 0.035 mL.

[6] = target: BChE (Homo sapiens, UniProt P06276); assay type: biochemical; conditions: samples 3 mM/dm^3 in DMSO, 0.035 mL; mean ± SEM, n = 3
[7] = Hydroxyl radical antioxidant capacity (HORAC); conditions: samples 1 mg/mL DMSO; mean ± SEM, n = 3
[8] = test system: SCC-25 cells; assay: Sonodynamic cytotoxicity, MTT test; assay type: cell-based, human; conditions: 40 µM; for Reduction of viability of SCC-25 cells, compound combined with US: 8 h, then US 3 min, 3 MHz, 0.8 W/cm^2, MTT 6 h later, compared to untreated cells
[9] = test system: FaDu cells; assay: Sonodynamic cytotoxicity, MTT test; assay type: cell-based, human; conditions: 40 µM, 8 h, then US 3 min, 3 MHz, 0.8 W/cm^2; MTT 6 h later; compared to untreated cells
Method: The cytotoxic effect and sonosensitising properties of selected synthesised chalcone derivatives were evaluated on human SCC-25 tongue and FaDu throat cancer cell lines using the MTT test (Figure 5 and Figure 6).
SCC-25 and FaDu human squamous cell carcinoma cell lines were purchased from the American Type Culture Collection (ATCC). The cells were cultivated in an incubator under optimal culture conditions (temperature: 37 °C; humidity: 95%; carbon dioxide content: 5%). The SCC-25 cell line was cultured in phenol red-free DMEM:F-12 medium complemented with 10% FBS, 2.5 mM L-glutamine, penicillin (100 U/mL), and streptomycin (0.1 mg/mL). The FaDu cells were maintained in phenol red-free Eagle’s Minimum Essential Medium (EMEM) supplemented with 10% fetal bovine serum (FBS), 2.5 mM L-glutamine, penicillin (100 U/mL), and streptomycin (0.1 mg/mL). For the experiments, confluent stock cultures were harvested using the trypsin–EDTA solution and seeded in 35-mm-diameter Petri plates at a density of 1 × 10^6. They were allowed to attach overnight, and the tested compounds were then added at a concentration of 40 µM. Control cells were maintained under the same conditions with 0.1% DMSO. […] The absorbance was measured using an Elx-800 plate reader (BioTek, Bad Friedrichshall, Germany) at 570 nm (reference wavelength 650 nm).

[10] = temperatures below 30 °C ref 43; cited from earlier work

Chain of BChE (P06276 29-602, species assumed): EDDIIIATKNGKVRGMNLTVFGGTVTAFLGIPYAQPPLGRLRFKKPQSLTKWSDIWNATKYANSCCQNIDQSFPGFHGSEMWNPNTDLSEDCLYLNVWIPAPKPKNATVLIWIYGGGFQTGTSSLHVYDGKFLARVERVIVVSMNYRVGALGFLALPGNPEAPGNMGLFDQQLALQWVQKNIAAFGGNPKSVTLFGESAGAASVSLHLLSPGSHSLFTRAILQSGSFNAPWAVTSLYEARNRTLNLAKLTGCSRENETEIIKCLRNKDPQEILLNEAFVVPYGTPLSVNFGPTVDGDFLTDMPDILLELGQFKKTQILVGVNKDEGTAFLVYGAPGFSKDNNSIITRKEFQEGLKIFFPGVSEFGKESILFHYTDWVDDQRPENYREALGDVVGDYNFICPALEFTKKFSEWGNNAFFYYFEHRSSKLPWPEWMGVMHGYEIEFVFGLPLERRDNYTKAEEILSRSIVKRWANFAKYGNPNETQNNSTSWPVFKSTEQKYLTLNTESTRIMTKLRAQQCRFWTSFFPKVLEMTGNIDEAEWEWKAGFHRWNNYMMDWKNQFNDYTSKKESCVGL
T3 sequence (P55303 whole entry): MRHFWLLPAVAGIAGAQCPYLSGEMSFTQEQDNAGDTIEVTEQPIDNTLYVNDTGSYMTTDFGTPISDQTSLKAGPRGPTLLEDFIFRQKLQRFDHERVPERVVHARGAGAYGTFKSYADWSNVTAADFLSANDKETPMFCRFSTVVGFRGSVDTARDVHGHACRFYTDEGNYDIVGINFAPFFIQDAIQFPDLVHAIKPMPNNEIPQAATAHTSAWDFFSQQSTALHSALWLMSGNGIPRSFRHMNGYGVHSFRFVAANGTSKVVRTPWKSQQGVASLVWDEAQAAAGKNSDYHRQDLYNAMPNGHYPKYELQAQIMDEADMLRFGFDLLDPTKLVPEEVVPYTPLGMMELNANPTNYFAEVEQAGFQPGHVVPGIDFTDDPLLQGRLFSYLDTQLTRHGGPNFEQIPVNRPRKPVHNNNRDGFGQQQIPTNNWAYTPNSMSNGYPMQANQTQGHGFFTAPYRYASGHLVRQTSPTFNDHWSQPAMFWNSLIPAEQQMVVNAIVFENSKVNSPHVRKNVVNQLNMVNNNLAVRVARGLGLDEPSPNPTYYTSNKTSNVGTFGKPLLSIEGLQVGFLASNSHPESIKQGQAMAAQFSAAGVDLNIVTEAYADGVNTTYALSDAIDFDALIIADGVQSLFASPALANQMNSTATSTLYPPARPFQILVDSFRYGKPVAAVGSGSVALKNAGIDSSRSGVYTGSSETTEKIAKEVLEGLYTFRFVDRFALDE
Chain of AChE (P22303 32-614): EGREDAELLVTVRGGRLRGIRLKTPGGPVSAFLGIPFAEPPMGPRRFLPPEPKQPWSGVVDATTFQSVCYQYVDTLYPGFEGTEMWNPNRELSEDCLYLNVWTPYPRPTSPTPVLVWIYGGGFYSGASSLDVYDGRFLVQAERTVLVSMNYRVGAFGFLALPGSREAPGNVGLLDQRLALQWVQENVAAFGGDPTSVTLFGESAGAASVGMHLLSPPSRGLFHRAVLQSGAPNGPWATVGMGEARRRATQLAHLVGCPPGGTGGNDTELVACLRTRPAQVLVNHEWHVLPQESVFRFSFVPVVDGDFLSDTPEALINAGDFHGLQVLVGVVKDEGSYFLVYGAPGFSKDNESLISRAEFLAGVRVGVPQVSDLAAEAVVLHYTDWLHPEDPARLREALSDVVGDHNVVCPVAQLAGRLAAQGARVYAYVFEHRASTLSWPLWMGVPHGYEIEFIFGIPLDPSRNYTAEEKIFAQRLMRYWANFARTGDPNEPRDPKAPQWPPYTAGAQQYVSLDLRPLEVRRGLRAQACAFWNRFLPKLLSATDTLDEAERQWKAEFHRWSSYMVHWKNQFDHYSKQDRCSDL

Row | SMILES | Equivalent Concentration of Acetylsalicylic Acid (COX-2) [1] | GPx Inhibition (%) [2] | GPx activity (NADPH consumption rate) [2] | GR Inhibition (%) [3] | GR activity (NADPH consumption rate) [3] | CAT Inhibition (%) [4] | CAT Inhibition of the H2O2 Depletion [4] | AChE % (inhibition) [5] | AChE, Equivalent Concentration of Reference Compound Magniflorine [5] | AChE, Equivalent Concentration of Reference Compound Rivastigmine [5] | BChE % (inhibition) [6] | BChE, Equivalent Concentration of Reference Compound Magniflorine [6] | BChE, Equivalent Concentration of Reference Compound Rivastigmine [6] | HORAC, Gallic Acid Equivalents [7] | Reduction of viability of SCC-25 cells, compound combined with US [8] | Reduction of viability of SCC-25 cells, compound alone ([8]; MTT, compared to control) | Inhibition of viability of FaDu cells, compound combined with US [9] | pH of greatest stability of water solutions [10] | COX-2 Inhibition (%) [1]
1 | COc1ccc(/C=C/C(=O)c2ccccc2)cc1O [Compound 7, E-3-(3-hydroxy-4-methoxyphenyl)-1-phenylprop-2-en-1-one] | 7.7 ± 0.1 mg/mL | 32.4 ± 2.8% | 64.4 ± 5.5 nmol Depleted NADPH/min | 41.8 ± 3.1% | 1570 ± 116 nmol Depleted NADPH/min | 88.1 ± 4.0% | 0.22 ± 0.01 mm/dm^3/min | 89.8 ± 5.8% | 0.34 ± 0.01 µg/mL | 0.51 ± 0.03 µg/mL | 94.4 ± 4.1% | 0.37 ± 0.02 µg/mL | 0.27 ± 0.01 µg/mL | 11.5 ± 1.3 µg/mL |  |  |  |  | 
2 | COc1cc(/C=C/C(=O)c2ccccc2)ccc1O [Compound 1, 3-(4-hydroxy-3-methoxyphenyl)-1-phenylprop-2-en-1-one] | 6.1 ± 0.1 mg/mL | 30.3 ± 3.6% | 60.3 ± 7.1 nmol Depleted NADPH/min | 7.6 ± 2.4% | 286 ± 90 nmol Depleted NADPH/min | 78.6 ± 2.8% | 0.26 ± 0.01 mm/dm^3/min | 80.5 ± 8.2% | 0.31 ± 0.03 µg/mL | 0.46 ± 0.05 µg/mL | 78.0 ± 4.6% | 0.30 ± 0.02 µg/mL | 0.23 ± 0.01 µg/mL | 18.7 ± 3.8 µg/mL | ~ 40% | no significant difference | significantly reduced viability |  | 
3 | CC(C)Cc1ccc(C(C)C(=O)O)cc1 (centres unmarked) [Compound 4, ibuprofen, reference compound] |  |  |  | 19.9 ± 1.1% | 747 ± 41 nmol Depleted NADPH/min |  |  |  |  |  |  |  |  | 35.7 ± 4.2 µg/mL | no significant difference |  | no significant difference | 5–7 | 
4 | O=C(/C=C/c1ccccc1)c1ccccc1 [Compound 5] |  | did not inhibit and - |  | 29.1 ± 4.4% | 1093 ± 165 nmol Depleted NADPH/min | 12.5 ±2.4% | 0.03 ± 0.01 mm/dm^3/min | 65.7 ± 4.7% | 0.25 ± 0.02 µg/mL | 0.37 ± 0.03 µg/mL | 58.1 ± 3.4% | 0.23 ± 0.01 µg/mL | 0.17 ± 0.01 µg/mL | 6.1 ± 2.5 µg/mL |  |  |  |  | -
